According to the NIST ThermoML archive (doi:10.1016/j.jct.2009.11.014):

Settings: Liquid; for viscosity: Stony Brook Scientific falling needle HPHTV-100 viscometer; for mass density: vibrating tube

CCn1cc[n+](C)c1.F[B-](F)(F)F [1-ethyl-3-methylimidazolium tetrafluoroborate]
Settings	mass density [kg/m3]	viscosity [mPa·s]
282.55 K, 100 kPa	–	67.8
282.55 K, 700 kPa	–	69.1
282.55 K, 1700 kPa	–	70.1
282.55 K, 2700 kPa	–	71.6
282.55 K, 4400 kPa	–	72.9
282.55 K, 6100 kPa	–	74.3
282.55 K, 8200 kPa	–	75.5
282.55 K, 10300 kPa	–	76.1
282.55 K, 12900 kPa	–	77.9
282.55 K, 14100 kPa	–	79.3
283.15 K, 100 kPa	1297.04	–
283.15 K, 2000 kPa	1297.83	–
283.15 K, 4000 kPa	1298.68	–
283.15 K, 6000 kPa	1299.52	–
283.15 K, 8000 kPa	1300.36	–
283.15 K, 10000 kPa	1301.22	–
283.15 K, 12000 kPa	1302.03	–
283.15 K, 14000 kPa	1302.82	–
283.15 K, 20000 kPa	1305.3	–
283.15 K, 30000 kPa	1309.33	–
283.15 K, 40000 kPa	1313.27	–
283.15 K, 50000 kPa	1317.06	–
283.15 K, 60000 kPa	1320.84	–
288.15 K, 100 kPa	1293.21	–
288.15 K, 2000 kPa	1294.02	–
288.15 K, 4000 kPa	1294.88	–
288.15 K, 6000 kPa	1295.72	–
288.15 K, 8000 kPa	1296.59	–
288.15 K, 10000 kPa	1297.45	–
288.15 K, 12000 kPa	1298.29	–
288.15 K, 14000 kPa	1299.08	–
288.15 K, 20000 kPa	1301.58	–
288.15 K, 30000 kPa	1305.62	–
288.15 K, 40000 kPa	1309.54	–
288.15 K, 50000 kPa	1313.39	–
288.15 K, 60000 kPa	1317.17	–
293.15 K, 100 kPa	1289.36	–
293.15 K, 2000 kPa	1290.17	–
293.15 K, 4000 kPa	1291.05	–
293.15 K, 6000 kPa	1291.91	–
293.15 K, 8000 kPa	1292.79	–
293.15 K, 10000 kPa	1293.63	–
293.15 K, 12000 kPa	1294.48	–
293.15 K, 14000 kPa	1295.29	–
293.15 K, 20000 kPa	1297.8	–
293.15 K, 30000 kPa	1301.86	–
293.15 K, 40000 kPa	1305.84	–
293.15 K, 50000 kPa	1309.69	–
293.15 K, 60000 kPa	1313.49	–
293.75 K, 6300 kPa	–	46.1
293.75 K, 8200 kPa	–	47.5
293.75 K, 10100 kPa	–	48.4
293.75 K, 12400 kPa	–	49.3
293.85 K, 100 kPa	–	43.4
293.85 K, 700 kPa	–	43.7
293.85 K, 1700 kPa	–	44.1
293.85 K, 2700 kPa	–	44.4
293.85 K, 4200 kPa	–	44.9
293.85 K, 14500 kPa	–	49.7
298.15 K, 100 kPa	1285.51	–
298.15 K, 2000 kPa	1286.33	–
298.15 K, 4000 kPa	1287.22	–
298.15 K, 6000 kPa	1288.13	–
298.15 K, 8000 kPa	1289.02	–
298.15 K, 10000 kPa	1289.83	–
298.15 K, 12000 kPa	1290.7	–
298.15 K, 14000 kPa	1291.53	–
298.15 K, 20000 kPa	1294.05	–
298.15 K, 30000 kPa	1298.17	–
298.15 K, 40000 kPa	1302.18	–
298.15 K, 50000 kPa	1306.09	–
298.15 K, 60000 kPa	1309.95	–
303.15 K, 100 kPa	1281.74	–
303.15 K, 2000 kPa	1282.57	–
303.15 K, 4000 kPa	1283.44	–
303.15 K, 6000 kPa	1284.35	–
303.15 K, 8000 kPa	1285.26	–
303.15 K, 10000 kPa	1286.08	–
303.15 K, 12000 kPa	1287	–
303.15 K, 14000 kPa	1287.82	–
303.15 K, 20000 kPa	1290.4	–
303.15 K, 30000 kPa	1294.54	–
303.15 K, 40000 kPa	1298.58	–
303.15 K, 50000 kPa	1302.56	–
303.15 K, 60000 kPa	1306.43	–
303.95 K, 10300 kPa	–	34.2
304.05 K, 120 kPa	–	30.9
304.05 K, 680 kPa	–	31.1
304.05 K, 1730 kPa	–	31.2
304.05 K, 2710 kPa	–	31.4
304.05 K, 4300 kPa	–	32.2
304.05 K, 6340 kPa	–	32.6
304.05 K, 8250 kPa	–	33.1
304.05 K, 12210 kPa	–	34.3
304.05 K, 14300 kPa	–	35.2
308.15 K, 100 kPa	1277.93	–
308.15 K, 2000 kPa	1278.81	–
308.15 K, 4000 kPa	1279.69	–
308.15 K, 6000 kPa	1280.58	–
308.15 K, 8000 kPa	1281.46	–
308.15 K, 10000 kPa	1282.35	–
308.15 K, 12000 kPa	1283.22	–
308.15 K, 14000 kPa	1284.11	–
308.15 K, 20000 kPa	1286.68	–
308.15 K, 30000 kPa	1290.85	–
308.15 K, 40000 kPa	1294.96	–
308.15 K, 50000 kPa	1298.92	–
308.15 K, 60000 kPa	1302.82	–
313.15 K, 100 kPa	1274.17	–
313.15 K, 2000 kPa	1275.04	–
313.15 K, 4000 kPa	1275.93	–
313.15 K, 6000 kPa	1276.8	–
313.15 K, 8000 kPa	1277.73	–
313.15 K, 10000 kPa	1278.61	–
313.15 K, 12000 kPa	1279.51	–
313.15 K, 14000 kPa	1280.39	–
313.15 K, 20000 kPa	1283.04	–
313.15 K, 30000 kPa	1287.29	–
313.15 K, 40000 kPa	1291.42	–
313.15 K, 50000 kPa	1295.43	–
313.15 K, 60000 kPa	1299.37	–
313.65 K, 10170 kPa	–	25.7
313.65 K, 12290 kPa	–	26
313.65 K, 14100 kPa	–	26.2
313.75 K, 1760 kPa	–	23.8
313.75 K, 2730 kPa	–	24.1
313.75 K, 4350 kPa	–	24.5
313.75 K, 6270 kPa	–	24.9
313.75 K, 8230 kPa	–	25.1
313.85 K, 100 kPa	–	23.3
313.85 K, 700 kPa	–	23.4
313.85 K, 10300 kPa	–	25.6
318.15 K, 100 kPa	1270.39	–
318.15 K, 2000 kPa	1271.3	–
318.15 K, 4000 kPa	1272.25	–
318.15 K, 6000 kPa	1273.14	–
318.15 K, 8000 kPa	1274.05	–
318.15 K, 10000 kPa	1274.96	–
318.15 K, 12000 kPa	1275.87	–
318.15 K, 14000 kPa	1276.72	–
318.15 K, 20000 kPa	1279.36	–
318.15 K, 30000 kPa	1283.7	–
318.15 K, 40000 kPa	1287.8	–
318.15 K, 50000 kPa	1291.92	–
318.15 K, 60000 kPa	1295.92	–
323.15 K, 100 kPa	1266.69	–
323.15 K, 2000 kPa	1267.58	–
323.15 K, 4000 kPa	1268.52	–
323.15 K, 6000 kPa	1269.45	–
323.15 K, 8000 kPa	1270.37	–
323.15 K, 10000 kPa	1271.28	–
323.15 K, 12000 kPa	1272.19	–
323.15 K, 14000 kPa	1273.08	–
323.15 K, 20000 kPa	1275.76	–
323.15 K, 30000 kPa	1280.1	–
323.15 K, 40000 kPa	1284.32	–
323.15 K, 50000 kPa	1288.41	–
323.15 K, 60000 kPa	1292.42	–
323.65 K, 100 kPa	–	18.4
323.65 K, 700 kPa	–	18.6
323.65 K, 1700 kPa	–	18.7
323.75 K, 1200 kPa	–	18.5
323.75 K, 2300 kPa	–	18.7
323.75 K, 4200 kPa	–	18.9
323.75 K, 4500 kPa	–	18.9
323.75 K, 6100 kPa	–	19
323.75 K, 6600 kPa	–	19.4
323.75 K, 8200 kPa	–	19.3
323.75 K, 10200 kPa	–	19.7
323.75 K, 12400 kPa	–	19.9
323.75 K, 14300 kPa	–	20.1
